Results as given in US20070270418A1, “Inhibitors of P38 and Methods of Using the Same” (priority 2003, published 2007).

Columns and labels:
Experiment in all cases: Broad selectivity panel, 32P incorporation
Assay type in all cases: biochemical
Lyn = target: T1, Lyn (Homo sapiens, UniProt P07948); conditions: 40 μM ATP, read-out: Percent inhibition Lyn; for inhibition at 0.1 µM: 0.1 μM compound; for inhibition at 1 µM: 1 μM compound
T1 construct: purchased Upstate (Charlottesville, Va.)
Description: (§1) Various compounds of the present invention are screened against a panel of 24 additional kinases (Upstate, Charlottesville, Va.). Compounds are tested 0.1 μM and 1 μM in reactions containing 40 μM ATP. Incorporation of radiolabeled phosphate (^32P) into each kinase substrate is measured in the presence and absence of test compound. Results are reported as the percent decrease in the amount of ^32P incorporated into the substrate in the presence of compound, compared to buffer control.

PKA = target: T2, PKA (Homo sapiens, UniProt P17612); conditions: 40 μM ATP, read-out: Percent inhibition PKA; for inhibition at 0.1 µM: 0.1 μM compound; for inhibition at 1 µM: 1 μM compound
T2 construct: purchased Upstate (Charlottesville, Va.)
Description: as §1

p70S6K = conditions: 40 μM ATP
Description: as §1

JNK1α1 = target: T3, JNK1α1 (Homo sapiens, UniProt P45983); conditions: 40 μM ATP, read-out: Percent inhibition JNK1α1; for inhibition at 0.1 µM: 0.1 μM compound; for inhibition at 1 µM: 1 μM compound
T3 construct: purchased Upstate (Charlottesville, Va.)
Description: as §1

PDGFR α = target: T4, PDGFR α (Homo sapiens, UniProt P16234); conditions: 40 μM ATP, read-out: Percent inhibition PDGFR α; for inhibition at 0.1 µM: 0.1 μM compound; for inhibition at 1 µM: 1 μM compound
T4 construct: purchased Upstate (Charlottesville, Va.)
Description: as §1

c-RAF = target: T5, c-RAF (Homo sapiens, UniProt P04049); conditions: 40 μM ATP, read-out: Percent inhibition c-RAF; for inhibition at 0.1 µM: 0.1 μM compound; for inhibition at 1 µM: 1 μM compound
T5 construct: purchased Upstate (Charlottesville, Va.)
Description: as §1

GSK3β = target: T6, GSK3β (Homo sapiens, UniProt P49841); conditions: 40 μM ATP, read-out: Percent inhibition GSK3β; for inhibition at 0.1 µM: 0.1 μM compound; for inhibition at 1 µM: 1 μM compound
T6 construct: purchased Upstate (Charlottesville, Va.)
Description: as §1

PKB α = target: T7, PKB α (Homo sapiens, UniProt P31749); conditions: 40 μM ATP, read-out: Percent inhibition PKB α; for inhibition at 0.1 µM: 0.1 μM compound; for inhibition at 1 µM: 1 μM compound
T7 construct: purchased Upstate (Charlottesville, Va.)
Description: as §1

PKBβ = target: T8, PKBβ (Homo sapiens, UniProt P31751); conditions: 40 μM ATP, read-out: Percent inhibition PKBβ; for inhibition at 0.1 µM: 0.1 μM compound; for inhibition at 1 µM: 1 μM compound
T8 construct: purchased Upstate (Charlottesville, Va.)
Description: as §1

MKK6 = target: T9, MKK6 (Homo sapiens, UniProt P52564); conditions: 40 μM ATP, read-out: Percent inhibition MKK6; for inhibition at 0.1 µM: 0.1 μM compound; for inhibition at 1 µM: 1 μM compound
T9 construct: purchased Upstate (Charlottesville, Va.)
T9 sequence (P52564 1-334): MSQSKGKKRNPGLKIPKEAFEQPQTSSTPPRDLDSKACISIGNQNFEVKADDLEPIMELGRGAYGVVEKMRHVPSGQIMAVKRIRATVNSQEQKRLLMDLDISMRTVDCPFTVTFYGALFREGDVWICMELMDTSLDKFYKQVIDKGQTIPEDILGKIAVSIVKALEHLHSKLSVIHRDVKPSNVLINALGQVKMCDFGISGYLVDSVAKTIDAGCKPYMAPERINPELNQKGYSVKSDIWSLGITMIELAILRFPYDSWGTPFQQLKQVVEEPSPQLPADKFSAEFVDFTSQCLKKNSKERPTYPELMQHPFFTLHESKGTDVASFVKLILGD
Description: as §1

FGFR3 = target: T10, FGFR3 (Homo sapiens, UniProt P22607); conditions: 40 μM ATP, read-out: Percent inhibition FGFR3; for inhibition at 0.1 µM: 0.1 μM compound; for inhibition at 1 µM: 1 μM compound
T10 construct: purchased Upstate (Charlottesville, Va.)
Description: as §1

CaMKIV = target: T11, CaMKIV (Homo sapiens, UniProt Q16566); conditions: 40 μM ATP, read-out: Percent inhibition CaMKIV; for inhibition at 0.1 µM: 0.1 μM compound; for inhibition at 1 µM: 1 μM compound
T11 construct: purchased Upstate (Charlottesville, Va.)
T11 sequence (Q16566 1-473): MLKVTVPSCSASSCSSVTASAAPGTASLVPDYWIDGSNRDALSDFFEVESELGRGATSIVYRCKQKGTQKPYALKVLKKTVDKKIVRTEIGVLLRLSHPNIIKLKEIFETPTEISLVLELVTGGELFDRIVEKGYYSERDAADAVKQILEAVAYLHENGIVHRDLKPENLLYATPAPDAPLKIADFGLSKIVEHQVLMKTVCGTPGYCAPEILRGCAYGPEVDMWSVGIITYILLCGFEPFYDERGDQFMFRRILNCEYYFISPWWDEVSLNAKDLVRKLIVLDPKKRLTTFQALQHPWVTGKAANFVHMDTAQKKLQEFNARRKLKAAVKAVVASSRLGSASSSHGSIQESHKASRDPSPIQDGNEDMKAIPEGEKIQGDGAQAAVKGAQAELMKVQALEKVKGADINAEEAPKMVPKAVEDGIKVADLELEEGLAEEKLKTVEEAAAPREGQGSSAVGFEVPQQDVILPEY
Description: as §1

SAPK4 = target: T12, SAPK4 (Homo sapiens, UniProt O15264); conditions: 40 μM ATP, read-out: Percent inhibition SAPK4; for inhibition at 0.1 µM: 0.1 μM compound; for inhibition at 1 µM: 1 μM compound
T12 construct: purchased Upstate (Charlottesville, Va.)
T12 sequence (O15264 1-365): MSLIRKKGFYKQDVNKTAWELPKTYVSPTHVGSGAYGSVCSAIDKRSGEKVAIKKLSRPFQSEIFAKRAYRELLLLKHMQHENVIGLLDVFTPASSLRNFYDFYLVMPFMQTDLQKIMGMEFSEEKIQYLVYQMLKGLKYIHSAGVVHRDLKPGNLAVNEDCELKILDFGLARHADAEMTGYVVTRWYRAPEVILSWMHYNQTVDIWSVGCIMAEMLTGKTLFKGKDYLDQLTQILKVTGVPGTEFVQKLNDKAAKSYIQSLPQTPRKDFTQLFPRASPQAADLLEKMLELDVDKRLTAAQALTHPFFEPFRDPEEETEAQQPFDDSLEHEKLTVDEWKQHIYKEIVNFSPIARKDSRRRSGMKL
Description: as §1

MAPK1 = target: T13, MAPK1 (Homo sapiens, UniProt P27361); conditions: 40 μM ATP, read-out: Percent inhibition MAPK1; for inhibition at 0.1 µM: 0.1 μM compound; for inhibition at 1 µM: 1 μM compound
T13 construct: purchased Upstate (Charlottesville, Va.)
Description: as §1

T8 sequence (P31751 whole entry, species assumed): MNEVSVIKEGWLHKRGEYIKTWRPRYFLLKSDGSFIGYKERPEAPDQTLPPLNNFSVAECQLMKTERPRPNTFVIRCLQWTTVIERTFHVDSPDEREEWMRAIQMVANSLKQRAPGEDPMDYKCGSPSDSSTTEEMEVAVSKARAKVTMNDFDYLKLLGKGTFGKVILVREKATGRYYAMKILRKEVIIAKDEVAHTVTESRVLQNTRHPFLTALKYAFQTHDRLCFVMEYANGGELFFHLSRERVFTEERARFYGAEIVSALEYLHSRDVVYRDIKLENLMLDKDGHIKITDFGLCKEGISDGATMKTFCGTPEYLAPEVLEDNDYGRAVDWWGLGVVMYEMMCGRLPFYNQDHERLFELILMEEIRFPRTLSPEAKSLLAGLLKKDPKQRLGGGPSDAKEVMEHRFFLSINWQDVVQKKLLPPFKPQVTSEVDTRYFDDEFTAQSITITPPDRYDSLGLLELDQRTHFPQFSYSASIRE
T10 sequence (P22607 23-806, species assumed): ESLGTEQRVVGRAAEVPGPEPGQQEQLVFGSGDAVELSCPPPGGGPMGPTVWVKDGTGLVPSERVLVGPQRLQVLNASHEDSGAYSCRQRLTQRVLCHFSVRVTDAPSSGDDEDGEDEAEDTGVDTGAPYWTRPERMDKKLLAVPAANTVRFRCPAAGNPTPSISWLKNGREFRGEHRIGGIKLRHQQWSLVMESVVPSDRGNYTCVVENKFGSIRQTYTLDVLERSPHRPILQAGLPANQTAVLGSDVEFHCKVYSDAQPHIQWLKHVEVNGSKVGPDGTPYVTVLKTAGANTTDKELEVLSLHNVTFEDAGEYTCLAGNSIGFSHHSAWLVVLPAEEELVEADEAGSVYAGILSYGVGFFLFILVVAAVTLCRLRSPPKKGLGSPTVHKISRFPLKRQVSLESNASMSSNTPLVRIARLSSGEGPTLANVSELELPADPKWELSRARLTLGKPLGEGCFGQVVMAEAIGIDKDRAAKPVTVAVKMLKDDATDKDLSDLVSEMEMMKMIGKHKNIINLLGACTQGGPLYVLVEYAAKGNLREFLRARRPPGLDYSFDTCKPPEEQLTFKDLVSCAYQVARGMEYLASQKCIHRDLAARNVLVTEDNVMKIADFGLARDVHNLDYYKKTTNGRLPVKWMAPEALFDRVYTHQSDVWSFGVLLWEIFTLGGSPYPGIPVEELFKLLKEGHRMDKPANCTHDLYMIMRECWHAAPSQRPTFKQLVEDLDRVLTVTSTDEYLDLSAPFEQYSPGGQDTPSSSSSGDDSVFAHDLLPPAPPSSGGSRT
T13 sequence (P27361 whole entry): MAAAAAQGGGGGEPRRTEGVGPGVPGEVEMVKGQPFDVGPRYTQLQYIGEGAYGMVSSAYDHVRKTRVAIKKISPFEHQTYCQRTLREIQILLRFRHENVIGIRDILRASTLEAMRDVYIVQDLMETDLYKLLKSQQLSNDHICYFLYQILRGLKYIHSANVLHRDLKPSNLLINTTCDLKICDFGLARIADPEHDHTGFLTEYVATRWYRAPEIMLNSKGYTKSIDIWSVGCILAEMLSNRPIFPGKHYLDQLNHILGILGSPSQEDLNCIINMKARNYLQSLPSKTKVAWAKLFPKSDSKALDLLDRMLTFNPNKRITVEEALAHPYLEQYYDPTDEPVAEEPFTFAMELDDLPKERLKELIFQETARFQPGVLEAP
T3 sequence (P45983 1-384 isoform P45983-2, species assumed): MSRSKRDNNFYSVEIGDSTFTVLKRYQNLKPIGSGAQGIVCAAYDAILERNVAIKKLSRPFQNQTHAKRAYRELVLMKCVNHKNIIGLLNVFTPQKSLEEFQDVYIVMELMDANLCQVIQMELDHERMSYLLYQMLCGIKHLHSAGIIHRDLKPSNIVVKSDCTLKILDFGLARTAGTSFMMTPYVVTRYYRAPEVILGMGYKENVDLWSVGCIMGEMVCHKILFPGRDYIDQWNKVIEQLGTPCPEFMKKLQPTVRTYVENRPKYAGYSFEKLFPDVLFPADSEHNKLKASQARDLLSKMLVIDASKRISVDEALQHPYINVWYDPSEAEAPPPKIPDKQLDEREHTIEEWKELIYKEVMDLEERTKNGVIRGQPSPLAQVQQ
T4 sequence (P16234 24-1089, species assumed): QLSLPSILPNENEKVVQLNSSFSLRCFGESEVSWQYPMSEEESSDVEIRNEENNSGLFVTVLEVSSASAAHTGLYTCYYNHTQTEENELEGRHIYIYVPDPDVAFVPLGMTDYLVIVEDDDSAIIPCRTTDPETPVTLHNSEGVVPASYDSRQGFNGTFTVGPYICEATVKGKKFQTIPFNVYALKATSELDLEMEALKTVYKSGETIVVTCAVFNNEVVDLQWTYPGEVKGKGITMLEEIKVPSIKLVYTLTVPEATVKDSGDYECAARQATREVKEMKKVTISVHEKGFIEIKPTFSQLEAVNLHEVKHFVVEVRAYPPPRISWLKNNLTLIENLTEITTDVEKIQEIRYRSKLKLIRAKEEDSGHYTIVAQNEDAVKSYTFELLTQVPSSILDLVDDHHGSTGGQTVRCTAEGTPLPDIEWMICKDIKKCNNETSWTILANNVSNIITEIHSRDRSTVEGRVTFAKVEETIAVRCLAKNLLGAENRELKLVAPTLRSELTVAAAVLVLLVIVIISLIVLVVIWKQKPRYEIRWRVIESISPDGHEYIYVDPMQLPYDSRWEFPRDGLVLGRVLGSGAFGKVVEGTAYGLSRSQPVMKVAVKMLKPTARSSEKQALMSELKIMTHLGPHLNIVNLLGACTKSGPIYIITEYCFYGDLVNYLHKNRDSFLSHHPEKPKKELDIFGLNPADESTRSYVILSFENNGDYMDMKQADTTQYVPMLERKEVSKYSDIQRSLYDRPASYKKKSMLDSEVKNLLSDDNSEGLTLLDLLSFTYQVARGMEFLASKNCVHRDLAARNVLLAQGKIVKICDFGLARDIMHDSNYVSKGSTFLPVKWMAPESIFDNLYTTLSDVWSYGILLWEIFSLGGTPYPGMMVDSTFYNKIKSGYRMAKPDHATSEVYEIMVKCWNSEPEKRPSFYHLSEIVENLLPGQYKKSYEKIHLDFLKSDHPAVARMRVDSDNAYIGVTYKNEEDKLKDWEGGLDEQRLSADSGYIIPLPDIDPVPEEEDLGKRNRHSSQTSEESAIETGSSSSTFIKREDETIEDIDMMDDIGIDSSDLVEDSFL
T1 sequence (P07948 whole entry, species assumed): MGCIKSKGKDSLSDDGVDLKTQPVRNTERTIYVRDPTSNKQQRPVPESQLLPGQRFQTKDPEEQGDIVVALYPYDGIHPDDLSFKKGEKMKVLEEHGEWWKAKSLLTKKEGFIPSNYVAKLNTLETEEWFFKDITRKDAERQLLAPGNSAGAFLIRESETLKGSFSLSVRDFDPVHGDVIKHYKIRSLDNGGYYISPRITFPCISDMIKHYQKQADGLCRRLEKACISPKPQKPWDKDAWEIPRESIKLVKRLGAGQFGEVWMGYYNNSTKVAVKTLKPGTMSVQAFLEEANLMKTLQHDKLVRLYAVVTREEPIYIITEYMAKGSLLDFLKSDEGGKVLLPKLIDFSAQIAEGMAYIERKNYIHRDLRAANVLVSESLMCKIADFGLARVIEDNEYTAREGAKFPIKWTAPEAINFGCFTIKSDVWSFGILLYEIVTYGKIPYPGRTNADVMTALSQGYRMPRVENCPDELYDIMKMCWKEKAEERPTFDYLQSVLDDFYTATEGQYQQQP
T6 sequence (P49841 whole entry, species assumed): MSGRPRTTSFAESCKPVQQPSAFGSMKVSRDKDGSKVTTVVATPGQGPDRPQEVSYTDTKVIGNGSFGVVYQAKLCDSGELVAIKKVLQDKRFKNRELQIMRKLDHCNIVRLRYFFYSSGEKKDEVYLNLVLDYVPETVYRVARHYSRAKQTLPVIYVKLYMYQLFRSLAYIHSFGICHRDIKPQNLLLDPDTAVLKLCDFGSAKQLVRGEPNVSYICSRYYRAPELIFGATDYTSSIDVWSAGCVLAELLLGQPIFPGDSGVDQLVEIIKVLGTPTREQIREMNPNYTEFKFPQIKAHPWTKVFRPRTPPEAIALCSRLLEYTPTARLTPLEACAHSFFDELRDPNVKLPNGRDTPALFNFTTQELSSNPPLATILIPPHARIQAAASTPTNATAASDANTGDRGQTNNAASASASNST
T7 sequence (P31749 whole entry, species assumed): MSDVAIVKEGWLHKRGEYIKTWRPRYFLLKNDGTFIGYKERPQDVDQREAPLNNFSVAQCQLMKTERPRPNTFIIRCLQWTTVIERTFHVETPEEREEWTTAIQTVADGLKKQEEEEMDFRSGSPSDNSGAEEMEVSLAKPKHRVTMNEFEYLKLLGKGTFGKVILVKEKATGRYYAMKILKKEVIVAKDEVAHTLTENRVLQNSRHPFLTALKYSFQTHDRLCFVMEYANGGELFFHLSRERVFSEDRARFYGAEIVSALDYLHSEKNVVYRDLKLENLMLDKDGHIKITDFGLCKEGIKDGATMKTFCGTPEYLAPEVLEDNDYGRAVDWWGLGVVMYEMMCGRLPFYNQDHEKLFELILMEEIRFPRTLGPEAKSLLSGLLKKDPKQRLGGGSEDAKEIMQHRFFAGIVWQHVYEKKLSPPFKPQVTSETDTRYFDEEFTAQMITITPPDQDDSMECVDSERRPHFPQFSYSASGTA

Structure (SMILES)	inhibition at 0.1 µM (Lyn) [%]	inhibition at 1 µM (Lyn) [%]	inhibition at 0.1 µM (PKA) [%]	inhibition at 1 µM (PKA) [%]	Percent inhibition p70S6K (p70S6K; 0.1 μM compound)	Percent inhibition p70S6K (p70S6K; 1 μM compound)	inhibition at 0.1 µM (JNK1α1) [%]	inhibition at 1 µM (JNK1α1) [%]	inhibition at 0.1 µM (PDGFR α) [%]	inhibition at 1 µM (PDGFR α) [%]	inhibition at 0.1 µM (c-RAF) [%]	inhibition at 1 µM (c-RAF) [%]	inhibition at 0.1 µM (GSK3β) [%]	inhibition at 1 µM (GSK3β) [%]	inhibition at 0.1 µM (PKB α) [%]	inhibition at 1 µM (PKB α) [%]	inhibition at 0.1 µM (PKBβ) [%]	inhibition at 1 µM (PKBβ) [%]	inhibition at 0.1 µM (MKK6) [%]	inhibition at 1 µM (MKK6) [%]	further results
Fc1ccc(-c2nc3occn3c2-c2ccnc(N[C@@H]3CN4CCC3CC4)n2)cc1 [LXXI]	4	10	16	11	−10	6	-20	3	10	9	7	42	-8	10	-5	9	-42	-5	-5	80	inhibition at 0.1 µM (FGFR3): -1%; inhibition at 1 µM (FGFR3): 16%; inhibition at 0.1 µM (CaMKIV): 5%; inhibition at 1 µM (CaMKIV): 6%; inhibition at 0.1 µM (SAPK4): -1%; inhibition at 1 µM (SAPK4): 3%; inhibition at 0.1 µM (MAPK1): 27%; inhibition at 1 µM (MAPK1): 56%
Fc1ccc(-c2nc3occn3c2-c2ccnc(N[C@H]3CN4CCC3CC4)n2)cc1 [LXXXVII]	-32	-13	-10	-6	−4	−1	-25	0	-6	-11	15	58	6	8	-2	5	-26	-29	-4	54	inhibition at 0.1 µM (FGFR3): -23%; inhibition at 1 µM (FGFR3): -21%; inhibition at 0.1 µM (CaMKIV): -12%; inhibition at 1 µM (CaMKIV): 10%; inhibition at 0.1 µM (SAPK4): -3%; inhibition at 1 µM (SAPK4): -1%; inhibition at 0.1 µM (MAPK1): 12%; inhibition at 1 µM (MAPK1): 27%
